Laboratory results taken from article PMC10150359 (Journal of Medicinal Chemistry, 2023).

Assays:
in vitro = conditions: human
[1] = tested on: EBOV-GP-Pseudotype Virus (pEBOV); assay: microbe, parasite or virus in culture; conditions: Zaire ebolavirus, 48 h; for inhibition at 10 µM: M-HeLa, read-out: %inh@10 μM (pEBOV)

Structure (SMILES) | CC50 (in vitro) [µM] | EC50 ([1]; HeLa, read-out: EC50 (μM) (pEBOV)) [µM] | inhibition at 10 µM [1] [%]
O=C(CN1CCN(c2ccccc2)CC1)NN(c1ccccc1)c1ccccc1 [Compound 15, N′,N′-Diphenyl-2-(4-phenylpiperazin-1-yl)acetohydrazide] | > 10 | > 100 | 8
O=C(CCN1CCN(c2ccccc2)CC1)NN(c1ccccc1)c1ccccc1 [Compound 16, N′,N′-Diphenyl-3-(4-phenylpiperazin-1-yl)propanehydrazide] | > 10 |  | 70
CCOC(=O)C1CCN(CC(=O)NN(c2ccccc2)c2ccccc2)CC1 [Compound 17, Ethyl 1-(2-(2,2-Diphenylhydrazinyl)-2-oxoethyl)piperidine-4-carboxylate] | > 10 |  | 47
CCOC(=O)C1CCN(CCC(=O)NN(c2ccccc2)c2ccccc2)CC1 [Compound 18, Ethyl 1-(3-(2,2-Diphenylhydrazinyl)-3-oxopropyl)piperidine-4-carboxylate] | > 10 |  | 24
O=C(CN1CCOCC1)NN(c1ccccc1)c1ccccc1 [Compound 20, 2-Morpholino-N′,N′-diphenylacetohydrazide] | > 10 |  | -1
O=C(CCN1CCOCC1)NN(c1ccccc1)c1ccccc1 [Compound 21, 3-Morpholino-N′,N′-diphenylpropanehydrazide] | > 10 |  | 29
O=C(CNCCN1CCOCC1)NN(c1ccccc1)c1ccccc1 [Compound 22, 2-((2-Morpholinoethyl)amino)-N′,N′-diphenylacetohydrazide] | > 10 |  | 27
O=C(CCNCCN1CCOCC1)NN(c1ccccc1)c1ccccc1 [Compound 23, 3-((2-Morpholinoethyl)amino)-N′,N′-diphenylpropanehydrazide] | > 10 |  | 42
O=C(CNCCc1ccccc1)NN(c1ccccc1)c1ccccc1 [Compound 24, 2-(Phenethylamino)-N′,N′-diphenylacetohydrazide] | > 10 |  | 10
O=C(CCNCCc1ccccc1)NN(c1ccccc1)c1ccccc1 [Compound 25, 3-(Phenethylamino)-N′,N′-diphenylpropanehydrazide] | > 10 |  | 61
CCOC(=O)CCCCCCNCC(=O)NN(c1ccccc1)c1ccccc1 [Compound 26, Ethyl 7-((2-(2,2-Diphenylhydrazinyl)-2-oxoethyl)amino)heptanoate] | > 10 |  | 51
CCOC(=O)CCCCCCNCCC(=O)NN(c1ccccc1)c1ccccc1 [Compound 27, Ethyl 7-((3-(2,2-Diphenylhydrazinyl)-3-oxopropyl)amino)heptanoate] | > 10 |  | 53
CCCCCC(=O)NN(c1ccccc1)c1ccccc1 [Compound 28, N′,N′-Diphenylhexanehydrazide] | > 10 |  | 67
O=C(Cc1ccc(Br)cc1)NN(c1ccccc1)c1ccccc1 [Compound 29, 2-(4-Bromophenyl)-N′,N′-diphenylacetohydrazide] | > 10 |  | 73
CCOC(=O)C1CCN(CC(=O)NN(Cc2ccccc2)c2ccccc2)CC1 [Compound 35, Ethyl 1-(2-(2-Benzyl-2-phenylhydrazineyl)-2-oxoethyl)piperidine-4-carboxylate] | > 100 |  | 15
COC(=O)C1CCN(CC(=O)NN(Cc2ccccc2)c2ccccc2)CC1 [Compound 36, Methyl 1-(2-(2-Benzyl-2-phenylhydrazineyl)-2-oxoethyl)piperidine-4-carboxylate] | > 100 |  | 24
CCOC(=O)CCCCCCNCC(=O)NN(Cc1ccccc1)c1ccccc1 [Compound 37, Ethyl 7-((2-(2-Benzyl-2-phenylhydrazineyl)-2-oxoethyl)amino)heptanoate] | > 100 |  | 30
CCCCCC(=O)NN(Cc1ccccc1)c1ccccc1 [Compound 38, N′-Benzyl-N′-phenylhexanehydrazide] | > 100 |  | 18
